Earlier results on one substance are cited in publication PMC5689474 (Amino acids, 2010).

The target in one data set is human δ-opioid receptor (Homo sapiens, UniProt P41143). Conditions: read-out: Binding Kiδ; [3H]DPDPE; ±SEM; ref Lipkowski et al. (1999).
The next data set has as its target rat μ-opioid receptor (Rattus norvegicus, UniProt P33535). Conditions: read-out: Binding Kiμ; [3H]DAMGO; ±SEM; ref Lipkowski et al. (1999).
In data set [1] the target is Mouse vas deferens (δ-opioid receptors). Conditions: read-out: Functional bioactivity MVD (IC50); ±SEM; ref Lipkowski et al. (1999).
The subject of data set [2] is δ- and μ-opioid receptors. The following applies: words; ref Lipkowski et al. 1987; Horan et al. 1993.
For data set [3] the following is noted: after i.c.v. and i.t. administration; ref Lipkowski et al. 1987; Horan et al. 1993.
The conditions of data set [4]: ref Horan et al. 1993; Yamazaki et al. 2001.

human δ-opioid receptor, sequence (P41143 whole entry): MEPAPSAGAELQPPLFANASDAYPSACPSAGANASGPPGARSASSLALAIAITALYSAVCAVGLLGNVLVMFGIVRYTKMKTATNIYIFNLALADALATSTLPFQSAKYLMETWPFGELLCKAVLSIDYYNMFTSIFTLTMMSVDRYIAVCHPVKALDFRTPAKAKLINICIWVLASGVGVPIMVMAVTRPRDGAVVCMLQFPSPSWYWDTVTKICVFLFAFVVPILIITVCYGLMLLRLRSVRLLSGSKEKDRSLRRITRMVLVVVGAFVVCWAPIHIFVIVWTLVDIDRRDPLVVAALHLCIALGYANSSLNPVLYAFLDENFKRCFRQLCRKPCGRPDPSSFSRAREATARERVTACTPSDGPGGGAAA
rat μ-opioid receptor, sequence (P33535 whole entry): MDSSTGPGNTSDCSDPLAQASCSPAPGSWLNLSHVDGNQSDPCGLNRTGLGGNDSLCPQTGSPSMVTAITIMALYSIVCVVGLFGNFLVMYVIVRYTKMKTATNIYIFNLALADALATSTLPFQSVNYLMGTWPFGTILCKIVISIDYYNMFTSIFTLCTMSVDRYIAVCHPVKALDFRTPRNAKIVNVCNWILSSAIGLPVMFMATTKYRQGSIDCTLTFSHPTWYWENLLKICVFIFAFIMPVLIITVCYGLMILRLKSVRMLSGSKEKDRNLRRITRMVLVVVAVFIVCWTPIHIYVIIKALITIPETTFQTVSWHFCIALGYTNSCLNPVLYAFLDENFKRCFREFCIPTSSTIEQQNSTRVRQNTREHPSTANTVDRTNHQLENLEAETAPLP

One may read the IC50 as the point on the concentration scale where inhibition reaches its midpoint. Regarding “Tyr-D-Ala-Gly-Phe-NH-NH\-Phe\-Gly\-D-Ala\-Tyr [Bph]”, the Ki on human δ-opioid receptor was 2.6 ± 0.4 nM; at rat μ-opioid receptor, 1.4 ± 0.2 nM. Further, in data set [1], the IC50 was 27 ± 1.5 nM. Besides, in data set [2], the “affinity for both δ- and μ-receptors” value is “highly affinity for both δ- and μ-receptors”. For the same substance, in data set [3], the “potency compared with morphine” value is “significantly higher than morphine”. Also, the “physical dependence compared with morphine” value in data set [4] is listed as “less physical dependence than morphine”.
